Entries after “also recorded” stand apart in the source; their conditions may differ.
Assay: Histopathology of UVB-photodermatitis in topically treated paw-pad skin
Format: in vivo, mouse
Conditions: 5 mM GSK205 topical
Protocol: GSK205 topical treatment: A viscous solution of 68% EtOH/5% glycerol plus 1 mM or 5 mM GSK205 (none for control) was applied to hindpaws by rubbing in 20 μL, applied at time-points 1 hour and again 10 min before UV exposure.

## CN(CCc1ccc(Nc2nc(-c3cccnc3)cs2)cc1)Cc1ccccc1 [GSK205]
  UVB-photodermatitis histopathology (inflammation): virtual elimination of inflammation; also recorded: markedly reduced inflammatory infiltrate

Source: US11014896B2, “TRPA1 and TRPV4 inhibitors and methods of using the same for organ-specific inflammation and itch” (Duke University, priority 2014, dated 2021)
